{"source": "patent US20220184008A1", "about": "“MODULATORS OF INTRACELLULAR CHLORIDE CONCENTRATION” (FONDAZIONE ISTITUTO ITALIANO DI TECNOLOGIA, priority 2019, published 2022)", "key": {"NKCC1 [1]": {"system": "NKCC1", "assay": "Calcium kinetic assay in primary cultures of immature hippocampal neurons", "type": "cell-based", "conditions": "10 μM, immature neurons 3 DIV", "protocol": "FIG. 2: In vitro testing of the NKCC1 inhibitors in a calcium kinetic assay. a) Example traces of fluorescence levels upon application of GABA (100 μM) and KCl (90 mM) used to trigger calcium influx in primary neuronal cultures treated after 3 days in culture (3 DIV) with vehicle, bumetanide, furosemide and compounds 3.8, 3.13 and 3.17 in the calcium kinetic assay. b) Quantification of the average fluorescence increase upon GABA application normalized to the increase upon KCl application in neurons treated with bumetanide, furosemide and 3 exemplary compounds (3.8, 3.13, 3.17) (10 μM, 100 μM). Data represents mean±sem from 5 independent experiments, and they are presented as % of the control. *P<0.05, **P<0.01, ***P<0.001 Kruskal-Wallis Anova (Dunn's Post hoc Test).\nNext, the compounds of the invention were tested for their ability to revert the depolarizing GABAergic signaling in immature neurons. This effect was indirectly measured as calcium influx into the cells with an in vitro calcium kinetic assay in primary cultures of hippocampal neurons. The calcium kinetic assay exploits the physiological, endogenous, high expression of NKCC1 in immature neurons, which causes depolarizing actions of GABA and can activate voltage-gated Ca^2+ channels. Thus, in immature neurons, a compound that blocks NKCC1 is predicted to inhibit Ca^2+ responses upon GABA application. Immature neurons were cultured for 3 days in vitro (3 DIV) and loaded for 15 min with a calcium-sensitive dye (Fluo4). Then, the neurons were treated with bumetanide and furosemide (as positive controls) or with each of the selected compounds for 15 min. As a functional readout, the fluorescence level was monitored in these cultures before and after application of GABA (100 μM, for 20 sec). To test for neuronal viability at the end of the experiment, KCl was applied (90 mM, for 40 sec), which strongly depolarizes neurons, causing high activation of voltage-gated Ca^2+ channels in live cells. To quantify how bumetanide, furosemide, and selected compounds influenced NKCC1 inhibition, the fluorescence values were normalized upon GABA application to the fluorescence levels upon KCl application in treated neurons."}, "NKCC1 [2]": {"biological_target": "T1, NKCC1 (Homo sapiens, UniProt P55011)", "T1 construct": "expressed in transfected cells; host or cells: HEK293", "T1 sequence (P55011 1-1212)": "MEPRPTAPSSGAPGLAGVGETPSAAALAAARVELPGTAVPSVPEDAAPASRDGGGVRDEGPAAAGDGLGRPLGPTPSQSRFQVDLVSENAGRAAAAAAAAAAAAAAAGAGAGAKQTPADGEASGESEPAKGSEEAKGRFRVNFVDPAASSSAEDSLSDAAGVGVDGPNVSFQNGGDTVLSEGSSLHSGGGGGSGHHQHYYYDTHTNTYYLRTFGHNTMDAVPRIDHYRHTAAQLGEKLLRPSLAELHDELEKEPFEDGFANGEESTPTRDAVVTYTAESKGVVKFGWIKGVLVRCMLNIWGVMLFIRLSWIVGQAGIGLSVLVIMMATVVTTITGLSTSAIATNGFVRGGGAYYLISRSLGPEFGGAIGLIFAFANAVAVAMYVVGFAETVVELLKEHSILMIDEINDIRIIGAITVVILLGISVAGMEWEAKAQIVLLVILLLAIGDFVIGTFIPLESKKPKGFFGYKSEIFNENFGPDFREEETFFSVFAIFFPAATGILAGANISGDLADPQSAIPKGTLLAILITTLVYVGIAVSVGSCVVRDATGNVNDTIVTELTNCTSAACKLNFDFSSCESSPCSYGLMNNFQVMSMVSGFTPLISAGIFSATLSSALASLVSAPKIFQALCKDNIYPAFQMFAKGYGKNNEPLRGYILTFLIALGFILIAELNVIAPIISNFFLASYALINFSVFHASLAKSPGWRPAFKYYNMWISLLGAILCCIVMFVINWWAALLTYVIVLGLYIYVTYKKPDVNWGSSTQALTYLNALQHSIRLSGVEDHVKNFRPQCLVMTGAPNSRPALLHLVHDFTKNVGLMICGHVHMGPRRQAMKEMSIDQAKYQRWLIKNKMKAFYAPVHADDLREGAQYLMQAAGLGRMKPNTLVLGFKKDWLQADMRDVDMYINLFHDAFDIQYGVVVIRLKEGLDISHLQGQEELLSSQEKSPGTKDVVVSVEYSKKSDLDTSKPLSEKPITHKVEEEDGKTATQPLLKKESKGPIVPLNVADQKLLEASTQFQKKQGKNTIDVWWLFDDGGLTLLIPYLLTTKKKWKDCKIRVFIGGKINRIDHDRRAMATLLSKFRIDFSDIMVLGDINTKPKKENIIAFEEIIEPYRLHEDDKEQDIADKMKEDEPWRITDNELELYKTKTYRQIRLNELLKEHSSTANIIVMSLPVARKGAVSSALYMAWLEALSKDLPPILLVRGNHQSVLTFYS", "assay": "Chloride kinetic assay (Cl-sensitive YFP) in NKCC1-transfected HEK293 cells", "type": "cell-based", "conditions": "10 μM, NKCC1-transfected HEK293", "protocol": "FIG. 1: In vitro testing of the NKCC1 inhibitors in the chloride kinetic assay a) Example traces obtained in the chloride kinetic assay on HEK cells transfected with the YFP (mock) or with YFP and NKCC1. The arrow indicates the addition of NaCl (final concentration 74 mM) used to initiate the flux assay. b) Quantification of the effect of bumetanide (10 μM and 100 μM) or furosemide (10 μM and 100 μM) in the chloride kinetic assay on mock or NKCC1-transfected HEK293 cells. Data represents mean±sem from 5 independent experiments. c) Quantification of the effect of bumetanide and furosemide and 2 selected compounds (3.8, 3.17) in the chloride kinetic assay on NKCC1-transfected HEK293 cells. Data represents mean±sem from 5 independent experiments, and they are represented as % of the controls. *P<0.05, **P<0.01, ***P<0.001 Kruskal-Wallis Anova (Dunn's Post hoc Test); ###P<0.001 two-tailed unpaired Student t-test.\nTo screen in vitro the compounds efficiency in blocking NKCC1, a functional NKCC1 transporter assay was performed by measuring variation of Cl^− ion concentration in the cell through a Cl^− sensitive membrane-tagged yellow fluorescent protein (mbYFPQS, Addgene). mbYFPQS fluorescence is inversely dependent on the concentration of Cl^− inside the cell thus allowing an indirect estimation of the Cl^− transporter activity. In particular, HEK293 cells were transfected with NKCC1 or mock construct (control) together with the Cl^− sensitive YFP. After 2 DIV, the cells were treated with bumetanide and furosemide (as positive controls) or with each of the tested compounds of the invention in a Cl^− free medium. After 30 min, the inhibitory activity of the compounds was tested by monitoring fluorescence upon application of NaCl (FIG. 1a). Transported by NKCC1, Cl binds the YFP, leading to a fluorescence decrease. […] With the Cl kinetic assay, the NKCC1 inhibitory activity of the selected compounds was tested (FIG. 1c)."}}}
{"compound": "CNS(=O)(=O)c1cc(C(=O)O)ccc1NCCCCCCCC(F)(F)F", "note": "[Compound 3.10, 3-(methylsulfamoyl)-4-(8,8,8-trifluorooctylamino)benzoic acid]", "values": [{"measurement": "NKCC1 Inhibition % 10 μM Neurons Calcium kinetic assay", "setting": "NKCC1 [1]; Table 1", "result": 14, "unit": "%"}, {"measurement": "NKCC1 Inhibition % 10 μM Neurons Calcium kinetic assay", "setting": "NKCC1 [1]; Table 2", "result": 14, "unit": "%"}, {"measurement": "NKCC1 Inhibition % 10 μM HEK Chloride YFP assay", "setting": "NKCC1 [2]; Table 1", "result": "Inactive"}, {"measurement": "NKCC1 Inhibition % 10 μM HEK Chloride YFP assay", "setting": "NKCC1 [2]; Table 2", "result": "Inactive"}]}
